Results on two compounds are retold here after patent US20230147795A1, “COMPOSITION AND METHODS FOR PREVENTING RADIATION INJURY AND PROMOTING TISSUE REGENERATION” (FIRSTSTRING RESEARCH, INC., priority 2017, published 2023).

Residues, ends and D or L forms follow the SMILES beside them. *: point of attachment. Biotin = O=C1N[C@H]2[C@H](CS[C@H]2CCCCC(=O)*)N1; Ahx = NCCCCCC(=O)O

A short description of data set [1]: Stability study of ACT peptide in drug product gel. The format is physicochemical. Particulars: for ACT peptide remaining, % of the label claim (initial concentration): drug product with 1.25% hydroxyethylcellulose. On the procedure:
Derived through in vitro and in vivo studies, these stabilizers and excipients are incorporated into the drug product since they are non-irritating, non-staining, and non-immunogenic. […] The ACT peptide within the drug product containing 1.25% hydroxyethylcellulose only dropped to 98% of the label claim (i.e., initial concentration) when stored at 5° C. for three months and to 84% of the label claim when stored at 25° C. for the same duration. In one aspect of the invention, edetate disodium (EDTA) and Mannitol are incorporated within the drug product to provide stability to the ACT1 peptide. In some embodiments of the invention, the Mannitol is present in the formulation at 0.01% (w/w) to 1.6% (w/w), 0.01% (w/w) to 1.5% (w/w), 0.01% (w/w) to 1.4% (w/w), 0.01% (w/w) to 1.3% (w/w), 0.01% (w/w) to 1.2% (w/w), 0.01% (w/w) to 1.1% (w/w), 0.01% (w/w) to 1.0% (w/w), 0.01% (w/w) to 0.9% (w/w), 0.01% (w/w) to 0.8% (w/w), 0.01% (w/w) to 0.7% (w/w), 0.01% (w/w) to 0.6% (w/w), 0.01% (w/w) to 0.5% (w/w), 0.01% (w/w) to 0.4% (w/w), 0.01% (w/w) to 0.3% (w/w), 0.01% (w/w) to 0.2% (w/w), 0.01% (w/w) to 0.1% (w/w), or 0.01% (w/w) to 0.0.05% (w/w). In specific embodiments, the Mannitol is present in the formulation at about 0.05% (w/w).

In data set [2] the test system is C57BL/6 mice, partial body irradiation. The data set can be described thus: GI-targeted murine partial body irradiation model, survival. The following applies: 10 mg/kg intraperitoneally daily from 24 hrs post exposure up to 21 days, preliminary. The format is in vivo, mouse. An excerpt:
In this study, C557BL/6 mice (n=40; 20 females and 20 males) were exposed to partial body irradiation by one dose exposure of […] at 50cGy/min using a 60 Co gamma source. A Farmer ionization chamber was used to provide real-time quantification of the radiation dose. Animals were irradiated in a custom designed restrainer where their left pelvic limb was extended and maintained in position to permit shielding with a cerrobend structure. This method of shielding 5% of bone marrow serves to rescue mice from hematopoietic syndromel. Initiating 24 hrs post exposure, animals were treated daily with 0.9% sodium chloride (vehicle) or 10 mg/kg ACTT 1 (ACT1 polypeptide) delivered intraperitoneally for up to 21 days. Half of the animals (subtracting those that died on days 1-7) were euthanized on day 8 to allow for histological examination of GI organs (histology results pending).

For `CC[C@H](C)[C@H](NC(=O)[C@H](CCC(=O)O)NC(=O)[C@H](CC(C)C)NC(=O)[C@H](CC(=O)O)NC(=O)[C@H](CC(=O)O)NC(=O)[C@@H]1CCCN1C(=O)[C@H](CCCNC(=N)N)NC(=O)[C@@H]1CCCN1C(=O)[C@H](CCCNC(=N)N)NC(=O)[C@H](CCCCN)NC(=O)[C@H](CCCCN)NC(=O)[C@H](Cc1c[nH]c2ccccc12)NC(=O)[C@@H]1CCCN1C(=O)[C@H](CCCCN)NC(=O)[C@H](CCCNC(=N)N)NC(=O)[C@H](CCCNC(=N)N)NC(=O)[C@H](CC(N)=O)NC(=O)[C@@H]1CCCN1C(=O)[C@H](Cc1ccccc1)NC(=O)[C@H](Cc1c[nH]c2ccccc12)NC(=O)[C@@H](NC(=O)[C@H](CCCCN)NC(=O)[C@@H]1CCCN1C(=O)[C@H](CCC(N)=O)NC(=O)[C@H](CCCNC(=N)N)NC(=O)CCCCCNC(=O)CCCC[C@@H]1SC[C@@H]2NC(=O)N[C@@H]21)[C@@H](C)CC)C(=O)O` [Peptide 328967] ({Biotin-Ahx}-RQPKIWFPNRRKPWKKRPRPDDLEI-OH), the entries for the “ACT peptide remaining, % of the label claim (initial concentration)” value in data set [1] (stored at 5° C. for three months) and in data set [1] (stored at 25° C. for three months) were 98% and 84%, respectively. Also, the “Stability in Hydroxyethylcellulose, 250 HHX (1.25%) compared to Pluronic gels” value in data set [1] (gelling agent comparison) is “more stable”.

For RPRPDDLEI [ACT1 polypeptide], the “Survival / early mortality (Kaplan Maier analysis) compared to saline” value is “has an early effect on animal mortality” in data set [2] and “increased survival” in data set [2] (listed as ACTI polypeptide).
